Measurements reported in patent US8987285B2, “Pharmaceutical compositions, dosage forms and new forms of the compound of formula (I), and methods of use thereof” (Portola Pharmaceuticals, Inc., priority 2010, dated 2015).
“And” between values parts separate entries of the source, which are not always exact repeats. Identical values can stand only once.

What was measured:
[1] = Relative thermodynamic stability: cross-seeding, suspensions equilibrated, solid analysed by X-ray powder diffraction; assay type: physicochemical
Protocol: The relative thermodynamic stability of the anhydrous form poly-D in comparison with the known Forms A and B of the compound of formula (I) was assessed by cross-seeding experiments, where mixtures of the anhydrous form poly-D and Form A and mixtures of the anhydrous form poly-D and Form B were separately suspended in water, an organic solvent or mixtures of water and organic solvents. The suspension was then equilibrated at various temperatures for several days. The solid parts were then isolated by filtration and analysed by X-ray powder diffraction.

[2] = Saturation solubility, shake-flask with UV quantification; assay type: physicochemical; conditions: listed as The compound of formula (I)
Protocol: The FaSSIF and FeSSIF solutions were prepared using Phares SIF powder according to the formulation instructions and the SGF solution was prepared using the guidelines provided. […] The pH and temperature of the supernatant were measured on a SiriusT3 instrument.

[3] = Wettability: contact angle measurement with water on pressed powder; assay type: physicochemical; conditions: for surface hydrophobilicity from contact angle: critical angle around 50° (>50° hydrophob <50° hydrophil); for Contact angle: water, in ° (unit assumed)
Protocol: Contact angel instrument: EasyDrop DSA15E (Krüss, Hamburg, Germany)
Syringe: NE44, diameter of needle 0.5 mm (Krüss, Hamburg, Germany)
The powder was pressed (approx 50 mg powder, 3 tons, 2 min) in tablets and analyzed by contact angle measurement. The angel between the solid and the liquid is measured after 0 and up to 60 seconds using water.
All determinations used the above method and the limit for the standards measurements are well within the given limits.

[4] = Pharmacokinetic Study 1: FMI tablets fasted/fed versus reference IR capsule, crossover, healthy adult volunteers; assay type: in vivo, human; conditions: high fat meal versus fasted, FMI tablets
Protocol: This was an open label, randomized, four-period, incomplete crossover, single center study in healthy adult volunteers. There were 4 treatments in the study: 3 doses of the FMI (given fasting or fed following a high-fat breakfast) and one reference IR capsule (given fed after a typical breakfast). The term “FMI” refers to the dosage form of Example 7 (30 mg FMI) or Example 8 (75 mg FMI).
Each subject was randomized to 1 of 18 treatment sequences, each with 4 treatment periods (Table 27). The first treatment period consisted of 1 of the 3 doses of FMI given fed, and treatment periods 2 to 4 consisted of 1 dose of IR capsule (fed) and 2 of the 3 doses of the FMI given fasted. […] Each subject therefore had 2 fasting treatments with the FMI formulation, 1 fed treatment with the FMI formulation and a reference treatment (IR capsule). Seventy two subjects enrolled and were dosed in the study with 70 completers.
The study consisted of a 28-day screening period, four baseline periods (one before each treatment period), four treatment periods with a wash out period of a minimum of 5 days, followed by a study completion evaluation approximately 72 hours after the last drug administration. Subjects who met the eligibility criteria at screening were admitted to baseline evaluations. All baseline safety evaluation results were available prior to dosing.
For fasted administration, elinogrel was administered in the morning, following an overnight fast of at least 10 hours. Subjects continued to fast until 4 hours post-dose. For fed administration of FMI tablets, elinogrel was administered in the morning, within 30 minutes of a high fat breakfast (approximately 1000 calories). Subjects continued to fast until 4 hours post-dose. For fed administration of the reference (IR capsule), it was administered in the morning, within 30 minutes of a typical breakfast (approximately 500 calories). Subjects continued to fast until 4 hours post-dose.
Subjects were admitted to the study site approximately 12 hours prior to dosing in each period for baseline evaluations. Following a single dose of elinogrel, PK assessments were taken up to 48 hours post dose and safety assessments were made for up to 72 hours.
Subjects were domiciled for 24 hours post dosing for PK sample collection, at which time they were discharged from the study site. Subjects returned on the following 2 mornings for 48 hour PK and 72 hour safety samples. Following the 72 hour safety assessments of treatment period 4 (or in the case of subject discontinuation) subjects underwent study completion evaluations and were discharged from the study. […].
This was a three-period, four-treatment crossover study design with an add-on food effect period (Period 1).
Treatment 1 (T1)=elinogrel 30 mg FMI dose fasting
Treatment 2 (T2)=elinogrel 75 mg FMI dose fasting
Treatment 3 (T3)=elinogrel 150 mg FMI dose fasting
Reference (R)=elinogrel 150 mg IR capsule dose fed (typical breakfast); Example 6 (Reference)
Fed treatment 1 (F1)=elinogrel 30 mg FMI dose fed (high fat breakfast)
Fed treatment 2 (F2)=elinogrel 75 mg FMI dose fed (high fat breakfast)
Fed treatment 3 (F3)=elinogrel 150 mg FMI dose fed (high fat breakfast)
Subjects will received the following treatments in a randomized order: • Treatment (T1, F1) with IR (IR=immediate release) tablet of Example 7 containing pH-modifying alkalizing agent, 30 mg in fasted and fed state. • Treatment (T2, F2) with IR (IR=immediate release) tablet of Example 8 containing pH-modifying alkalizing agent, 75 mg in fasted and fed state • Treatment (R) with 2×IR (IR=immediate release) capsule of Example 6 (Reference): 2×75 mg (150 mg) in fed state. • Treatment (T3, F3) with 2×IR (IR=immediate release) tablet of Example 8 containing pH-modifying alkalizing agent, 2×75 mg (150 mg) in fasted and fed state.
To evaluate the food effect, the geometric mean ratio for PK parameters of the fed versus fasted for each dose level and its 90% CI was estimated as shown in Table 29 below.

[5] = Comparison of pharmacokinetic effects (AUC, bioavailability) in human studies for polymorphic form B, A and D; assay type: in vivo; conditions: polymorphs of the potassium salt
Protocol: Comparison of pharmacokinetic effects in human studies for polymorphic form B, A and D of the potassium salt of elinogrel.
Therefore the polymorphic form does have a strong impact on the bioavailability of the drug.
The bioavailability is measured in a human study according to FDA guidelines for conducting bioavailability studies. The area under the curve (AUC) of elinogrel potassium salt polymorph.

[6] = Super-saturation measurement (CheqSol): intrinsic and kinetic solubility; assay type: physicochemical; conditions: kinetic solubility divided by intrinsic solubility
Text: Anal. Chem. 2005, 77(4), 983-990; 2—Box, K J. Völgyi, G. Baka, E. Stuart, M. Takács-Novák, K. Corner, J E A. Equilibrium vs. kinetic measurements of aqueous solubility, and the ability of compounds to supersaturate in solution—a validation study. J. Pharm. Sci. 2006, 95, 1298-1307; 3—Sköld, C. Winiwarter, S. Johan Wernevik, J. Bergström, F. Engström, L. Allen, R. Box, K. Corner, J. Mole, J. Hallberg, A. Lennernäs, H. Lundstedt, T. Ungell, A-L. Karlén, A. Presentation of a Structurally Diverse and Commercially Available Drug Data Set for Correlation and Benchmarking Studies. J. Med. Chem. 2006, 49(23), 6660-6671;
. Med. Chem.; 2007, 50 (5), 979-983; 5—Llinás, A. Box, K J. Burley, J C. Glen, R C. Goodman, J M. J. A new method for the reproducible generation of polymorphs: two forms of Sulindac with very different solubilities. […] 6—Box K et al, Using Measured pKa, Log P and Solubility to Investigate Supersaturation and Predict BCS Class, Current Drug Metabolism, 2008, 9, 869-878]
1—kinetic solubility is the concentration of a compound in solution at the time when an induced precipitate first appears
2—equilibrium solubility (also called thermodynamic solubility) is the concentration of compound in a saturated solution when excess solid is present, and solution and solid are at equilibrium
3—intrinsic solubility [Hörter, D.; Dressman, J. B. Adv. Drug Deliv. Rev., 1997, 25, 3-14] is the equilibrium solubility of the free acid or base form of an ionisable compound at a pH where it is fully un-ionized
The super-saturation ratio is calculated as the ratio of kinetic solubility divided by the Intrinsic Solubility.

CNc1cc2[nH]c(=O)n(-c3ccc(NC(=O)[N-]S(=O)(=O)c4ccc(Cl)s4)cc3)c(=O)c2cc1F.[K+] [Form poly-D]
solid form after equilibration (XRPD) ([1]; MeOH, 25° C./4 days): No change | solid form after equilibration (XRPD) ([1]; MeOH, 50° C./3 days): No change | solid form after equilibration (XRPD) ([1]; MeOH/water 1:1 v/v, 25° C./4 days): No change | solid form after equilibration (XRPD) ([1]; MeOH/water 1:1 v/v, 50° C./3 days): No change | solid form after equilibration (XRPD) ([1]; MeOH/water 1:2 v/v, 25° C./4 days): No change | solid form after equilibration (XRPD) ([1]; MeOH/water 1:2 v/v, 50° C./3 days): No change | solid form after equilibration (XRPD) ([1]; MeOH/water 2:1 v/v, 25° C./4 days): No change | solid form after equilibration (XRPD) ([1]; MeOH/water 2:1 v/v, 50° C./3 days): No change | solid form after equilibration (XRPD) ([1]; water, 25° C./4 days): No change | solid form after equilibration (XRPD) ([1]; water, 50° C./3 days): No change | Saturation solubility ([2]; FaSSIF pH 6.5-1w, mean N = 2, form poly-D, potassium salt): 166.50 µg/mL | final pH measured of the supernatant ([2]; FaSSIF pH 6.5-1w, form poly-D, potassium salt): 7.00 | Saturation solubility ([2]; FeSSIF pH 5.0-1w, mean N = 2, form poly-D, potassium salt): 6.94 µg/mL | final pH measured of the supernatant ([2]; FeSSIF pH 5.0-1w, form poly-D, potassium salt): 5.17 | Saturation solubility ([2]; Na Phosphate pH 6.8, mean N = 2, form poly-D, potassium salt): 94.55 µg/mL | final pH measured of the supernatant ([2]; Na Phosphate pH 6.8, form poly-D, potassium salt): 7.08 | Saturation solubility ([2]; Na-Acetate pH 4.5, mean N = 2, form poly-D, potassium salt): 0.86 µg/mL | final pH measured of the supernatant ([2]; Na-Acetate pH 4.5, form poly-D, potassium salt): 4.82 | Saturation solubility ([2]; SGF pH 2.1, mean N = 2, form poly-D, potassium salt): 46.10 µg/mL | final pH measured of the supernatant ([2]; SGF pH 2.1, form poly-D, potassium salt): 6.34 | surface hydrophobilicity from contact angle ([3]; listed as polymorph poly-D, potassium salt): hydrophilic | Contact angle ([3]; 0 sec, potassium salt): 55.7 and 78.1 and 53.3 | Contact angle ([3]; 10 sec, potassium salt): 27.7 and 33.4 and 28.2 | Contact angle ([3]; 20 sec, potassium salt): 16.1 and 21.7 and 22.9 | Contact angle ([3]; 30 sec, potassium salt): 20.6 | Contact angle ([3]; 60 sec, potassium salt): 15.2 | food effect [4]: significant negative food effect | AUC (bioavailability) ([5]; 150 mg dose, listed as polymorph D, potassium salt): 35227 ng·h/mL

CNc1cc2[nH]c(=O)n(-c3ccc(NC(=O)[N-]S(=O)(=O)c4ccc(Cl)s4)cc3)c(=O)c2cc1F.[K+] [Form B]
Saturation solubility ([2]; FaSSIF pH 6.5-1w, mean N = 2, form B): 132.50 µg/mL | final pH measured of the supernatant ([2]; FaSSIF pH 6.5-1w, form B): 6.97 | Saturation solubility ([2]; FeSSIF pH 5.0-1w, mean N = 2, form B): 2.49 µg/mL | final pH measured of the supernatant ([2]; FeSSIF pH 5.0-1w, form B): 5.16 | Saturation solubility ([2]; Na Phosphate pH 6.8, mean N = 2, form B): 25.95 µg/mL | final pH measured of the supernatant ([2]; Na Phosphate pH 6.8, form B): 7.02 | Saturation solubility ([2]; Na-Acetate pH 4.5, mean N = 2, form B): 0.40 µg/mL | final pH measured of the supernatant ([2]; Na-Acetate pH 4.5, form B): 4.81 | Saturation solubility ([2]; SGF pH 2.1, mean N = 2, form B): 19.14 µg/mL | final pH measured of the supernatant ([2]; SGF pH 2.1, form B): 5.05 | surface hydrophobilicity from contact angle ([3]; listed as polymorph B): hydrophob | Contact angle ([3]; 0 sec, listed as B): 79.7 and 72.4 | Contact angle ([3]; 30 sec, listed as B): 55.2 and 54.6 | Contact angle ([3]; 60 sec, listed as B): 52.8 and 53.5 | ratio super saturation ([6]; listed as K-salt-Form B): 363 | ratio super saturation ([6]; listed as polymorph B of the compound of formula (I)): 363 | AUC ([5]; human, plasma, oral, 150 mg): 27600 ng·h/mL
